# From patent US5336763A, “Trisazo dye and dye composition containing the same” (Orient Chemical Industries, Ltd., priority 1992, dated 1994)
# Where two headings read alike, the source gives them in different places.
# How the values were obtained:
# [1] = background; cited from earlier work
# [2] = system: strains TA98; type: cell-based
# Description: Regarding various specimen solutions respectively containing trisazo dyes obtained in Examples 1 to 11 to the present invention and dyes of Comparative Examples 1 to 3, the number of mutant colonies was determined using strains TA98. 2. When the ratio is less than 2, it is "negative" and, when the ratio is more than 2, it is "positive", and the results are shown in Table. 1.
compound,measurement,setting,value
C.I. Direct Black 168,Ames test,[1],false positive or positive
Nc1ccc(N=Nc2ccc(N=Nc3c(S(=O)(=O)[O-])cc4cc(S(=O)(=O)[O-])c(N=Nc5ccc(N=Nc6ccc(N)cc6N)cc5)c(O)c4c3N)cc2)c(N)c1.[Na+].[Na+] [C.I. Direct Black 19],Ames test,[1],false positive or positive
Nc1ccc(N=Nc2ccc(Oc3cccc(Oc4ccc(N=Nc5c(S(=O)(=O)O)cc6cc(S(=O)(=O)O)c(N=Nc7ccccc7)c(O)c6c5N)cc4)c3)cc2)c(O)c1 [Ex. 1],Ames test: ratio of number of colonies to control,"[2]; 20 μg/plate, with S-9",1.13
same,Ames test: ratio of number of colonies to control,"[2]; 20 μg/plate, without S-9",0.76
same,Ames test: ratio of number of colonies to control,"[2]; 78 μg/plate, with S-9",0.94
same,Ames test: ratio of number of colonies to control,"[2]; 78 μg/plate, without S-9",0.86
same,Ames test: ratio of number of colonies to control,"[2]; 313 μg/plate, with S-9",1.06
same,Ames test: ratio of number of colonies to control,"[2]; 313 μg/plate, without S-9",0.86
same,Ames test: ratio of number of colonies to control,"[2]; 1250 μg/plate, with S-9",0.53
same,Ames test: ratio of number of colonies to control,"[2]; 1250 μg/plate, without S-9",0.76
same,Ames test: ratio of number of colonies to control,"[2]; 5000 μg/plate, with S-9",0.59
same,Ames test: ratio of number of colonies to control,"[2]; 5000 μg/plate, without S-9",0.71
same,AMES evaluation,[2]; strains TA98,"Negative (When the ratio is less than 2, it is ""negative"")"
Cc1cc(-c2ccc(N=Nc3c(S(=O)(=O)[O-])cc4cc(S(=O)(=O)[O-])c(N=Nc5ccccc5)c(O)c4c3N)c(C)c2)ccc1N=Nc1ccc(N)cc1N.[Na+].[Na+] [C.I. Direct Black 154],Ames test,[1],false positive or positive
